Legend:
bovine serum albumin = bovine serum albumin (Bos taurus, UniProt P02769); assay: BSA binding by UV-visible absorption titration; settings: for Chromism (% H), hyperchromism: BSA 278 nm; for Δλ (nm), blue shift of BSA band: Tris-HCl, 25 μM BSA; for ∆Gb°: –RT lnKapp, 298 K
Procedure: In the presence of Tris-HCl buffer solution, the UV-vis absorption titrations were done with a 25 μM concentration of BSA at room temperature. While the sample concentrations (0–25 μM) increased in the same BSA concentration solution, the change in the absorption band at 278 nm was continuously noted.
The UV-visible spectral titration properties are imperatively supported to scrutinize the structural changes and the nature of quenched biomolecules by the chemical substance. The titration was executed for BSA in the presence and absence of substances in Tris-HCl solution (Figure 7 and Table 7). Two distinctive adsorption peaks can be noticed in the UV-visible spectra of free BSA: one at 210 nm, which is connected to the polypeptide backbone, and the other at 280 nm, which is responsible for Trp, Tyr, and Phe aromatic amino acid residues. BSA's interaction with the test substances is designated by alterations in the electronic absorption spectra. Quenching typically occurs in either a static or dynamic phase. The static quenching mechanism only involves the synthesis of a bovine serum albumin-compound in the ground state, when a dynamic quenching mechanism involves the temporary presence of the excited state due to diffusion, which brings the BSA and the compound into close proximity. In addition, the dynamic quenching mechanism has no outcome on the electronic absorption spectrum; it only affects the excited state. Furthermore, both types have different temperature dependences; for example, in dynamic quenching, the quenching constants are meant to rise with temperature. Conversely, raised temperatures in static quenching favour decreased stability and lower quenching constants. […] It also recommended that bovine serum albumin and the test compounds in the ground state interact statically. In this case, the evaluated hyperchromism was found in the range of 47.79 to 65.62%. […] The Benesi–Hildebrand (37) is supported to evaluate the Kb values (Table 7). The Kapp findings for all substances were estimated from the finding of the intercept divided slope in the linear regression plot of [(A∞ − A0)/(Ax − A0)] vs. {1/[compound]} M^−1(Figure S34). The evaluated Kb findings for all test substances were in the subsequent order: (1a) > (2a) > (HL) with ∆Gb° values from –22.1246 to –28.0038 kJ·mol^−1. Complex (1a) is also clearly shown to have the greatest spontaneous binding efficacy with BSA among others.
Hyperchromism%=(A∞ − A0)/A∞ × 100; A0 is denoted as absorbance of BSA alone at 278 nm, A∞ is represented as absorbance of the fully bound form of BSA with complex or ligand, and Ax is absorbance of BSA in the addition of different concentration of complex or ligand, Gibb's free energy change ΔGb°=–RT lnKapp (where R = […] and T = 298 K); Kapp is denoted as apparent binding constant evaluated from the UV-vis absorption spectral titration.(37) A∞−A0/AX−A0=1/KbCompound+1, where ∆Amax = (A∞ − A0), ∆A = (Ax − A0), A0, Ax, and A∞ are denoted as the absorbance of free BSA, the absorbance of BSA in the increment concentrations of the compound, and the absorbance value of the fully bound form of bovine serum albumin with substance, respectively. Error limit ±2.5%.

Candida albicans = assay: Agar disc diffusion, strain I; format: cell-based; set-up: (inhibition %): concentration or dose not given beside the values; settings: for diameter of the clear zone inhibition: control = 6 mm
Procedure: In-vitro antimicrobial properties were evaluated for all samples by the agar disc diffusion method towards different fungal and bacterial strains. Additionally, the reported inhibition zone values were comparatively analyzed with the standard antifungal drugs ketoconazole and amphotericin B as well as the standard antibiotic medications streptomycin and amikacin.
The current research has a curious focus on the in vitro antimicrobial properties of biological systems because these studies are crucial for developing effective antibacterial and antifungal medications. […] It can also be spelled out based on the chelation theory proposed by Overtone and Tweedy. Chelation theory points out that the partial exchanging of the positive charge of the metal center with donor moieties, and overlap of the ligand orbitals will reduce the greater degree of the metal ion's polarity, which ultimately rises the delocalization of π and d electrons over the full chelated ring system. By raising the size of the metal ion due to the retarding of polarization, chelation may also enhance the complexes' lipophilic characteristics, which further stimulate the lipid membrane permeability and break down the bacteria' enzymes responsible for cell wall formation, therefore slowing down the regular cell processes. By preventing the production of cell walls/proteins/DNA, including by obstructing folate metabolism and the cytoplasmic membrane, antimicrobial drugs frequently either fully eliminate microbes or only prevent their cell growth. Additionally, the samples' mode of action may be employed in disrupting the cell's respiration process by forming an H-bond during the morpholine-fused iminic group coordinated with the active metal center of its components, inhibiting proliferation of the cell. […] The difference in the antimicrobial efficacy of some of the compounds towards various microorganisms influences on the impermeability of the cells of the germs or the diversity of ribosomes of the microbes. The % of the inhibition of all substances is estimated from (45) (Table 9).
(A, B, C, D, and E are represented as gram negative bacteria species Escherichia coli, Salmonella enteric serovar typhi, Salmonella enteric serovar typhi, Pseudomonas aeruginosa, and Shigella flexneri, respectively. F & G are denoted as gram positive bacteria species Staphylococcus aureus and Bacillus cereus. H, I, and J are represented as fungal strains Aspergillus niger, Candida albicans, and Mucor indicus. Standard drugs for bacterial strains: Amikacin & Streptomycin Standard drugs for fungal strains: Ketoconazole and Amphotericin B. [Control (DMSO) = 6 mm].(44) Inhibition %=T–C/T×100, where T and C are represented as the diameter of microbial growth of the sample plates and the control plate (6 mm), respectively. Error limits ±2.5–5.0% (P ≤ 0.05).

Chain of bovine serum albumin (P02769 25-607): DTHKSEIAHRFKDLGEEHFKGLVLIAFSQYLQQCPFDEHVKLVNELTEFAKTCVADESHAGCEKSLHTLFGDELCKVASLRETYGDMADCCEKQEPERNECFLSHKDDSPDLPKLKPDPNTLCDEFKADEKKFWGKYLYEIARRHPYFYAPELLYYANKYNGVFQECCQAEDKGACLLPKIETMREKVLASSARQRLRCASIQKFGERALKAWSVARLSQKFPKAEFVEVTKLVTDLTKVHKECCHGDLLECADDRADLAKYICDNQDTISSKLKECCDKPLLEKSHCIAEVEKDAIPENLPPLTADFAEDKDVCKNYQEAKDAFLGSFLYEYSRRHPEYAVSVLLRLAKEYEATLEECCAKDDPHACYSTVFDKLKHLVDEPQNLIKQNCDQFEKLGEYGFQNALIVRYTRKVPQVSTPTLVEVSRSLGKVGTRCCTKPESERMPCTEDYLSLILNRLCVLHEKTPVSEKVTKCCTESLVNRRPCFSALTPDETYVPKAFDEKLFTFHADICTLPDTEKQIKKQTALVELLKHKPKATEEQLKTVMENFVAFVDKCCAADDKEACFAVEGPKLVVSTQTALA

For `Oc1ccccc1N=Cc1ccc(N2CCOCC2)cc1` [(HL), 2-(4-morpholinobenzylideneamino)phenol], the Kd (bovine serum albumin) was 132 µM, the “Chromism (% H), hyperchromism” value (bovine serum albumin) was 47.79% and the “Δλ (nm), blue shift of BSA band” value (bovine serum albumin) was 02 nm. The “∆Gb°” value (bovine serum albumin) was -5.28791 kcal/mol, the “(inhibition %)” value (Candida albicans) was 40% and the “diameter of the clear zone inhibition” value (Candida albicans) was 10 mm.
With `[Cu+2].[O-]c1ccccc1N=Cc1ccc(N2CCOCC2)cc1.[O-]c1ccccc1N=Cc1ccc(N2CCOCC2)cc1.c1ccc(-c2ccccn2)nc1` [(1a), [Cu(L)2(bpy)]] the “Binding constant Kapp by BH method” value (bovine serum albumin) was 81059 M⁻¹, the “Chromism (% H), hyperchromism” value (bovine serum albumin) was 65.62% and the “Δλ (nm), blue shift of BSA band” value (bovine serum albumin) was 05 nm. The “∆Gb°” value (bovine serum albumin) was -6.69307 kcal/mol, the “(inhibition %)” value (Candida albicans) was 50% and the “diameter of the clear zone inhibition” value (Candida albicans) was 12 mm.
With `[O-]c1ccccc1N=Cc1ccc(N2CCOCC2)cc1.[O-]c1ccccc1N=Cc1ccc(N2CCOCC2)cc1.[Zn+2].c1ccc(-c2ccccn2)nc1` [(2a), [Zn(L)2(bpy)]] the “Binding constant Kapp by BH method” value (bovine serum albumin) was 44355 M⁻¹, the “Chromism (% H), hyperchromism” value (bovine serum albumin) was 55.04% and the “Δλ (nm), blue shift of BSA band” value (bovine serum albumin) was 04 nm. The “∆Gb°” value (bovine serum albumin) was -6.33389 kcal/mol, the “(inhibition %)” value (Candida albicans) was 54% and the “diameter of the clear zone inhibition” value (Candida albicans) was 13 mm.

Reference: PMC9763021, “Comprehensive Assessment of Biomolecular Interactions of Morpholine-Based Mixed Ligand Cu(II) and Zn(II) Complexes of 2,2′-Bipyridine as Potential Anticancer and SARS-CoV-2 Agents: A Synergistic Experimental and Structure-Based Virtual Screening” (Bioinorganic Chemistry and Applications, 2022)
